Laboratory results reported in ChEMBL document CHEMBL1201862, “PubChem BioAssay data set” (2004).
The source made the active and inactive calls.

How the values were obtained:
[1] = biological target: T1, Low molecular weight phosphotyrosine protein phosphatase (Homo sapiens, UniProt P24666); test: inhibition of human LMPTP enzyme activity – biochemical, absorbance, pNPP substrate, LMPTP-A isoform, set 2, orthogonal assay, dose response (AID 743308); type: functional
T1 sequence (P24666 whole entry): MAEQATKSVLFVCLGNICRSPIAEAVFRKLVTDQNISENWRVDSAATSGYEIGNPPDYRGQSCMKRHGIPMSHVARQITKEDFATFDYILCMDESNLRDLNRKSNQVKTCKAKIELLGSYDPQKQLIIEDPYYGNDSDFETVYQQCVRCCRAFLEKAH

[2] = biological target: T1, Low molecular weight phosphotyrosine protein phosphatase; test: inhibition of LMPTP-A enzymatic activity – biochemical, OMFP substrate, fluorescence intensity, set 2, dose response (AID 743307); type: functional
[3] = biological target: NAD-dependent protein deacylase sirtuin-5, mitochondrial (Homo sapiens, UniProt Q9NXA8); test: sirtuin-5 deacylation blockers, concentration series – biochemical, fluorescence imaging, cherry-pick, set 5, dose response (AID 720591);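 also: desuccinylation of succinyl peptide AMC substrate read as fluorescence after trypsin release; potency of inhibitors that lower fluorescence and may act on trypsin instead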
NAD-dependent protein deacylase sirtuin-5, mitochondrial, sequence (Q9NXA8 whole entry): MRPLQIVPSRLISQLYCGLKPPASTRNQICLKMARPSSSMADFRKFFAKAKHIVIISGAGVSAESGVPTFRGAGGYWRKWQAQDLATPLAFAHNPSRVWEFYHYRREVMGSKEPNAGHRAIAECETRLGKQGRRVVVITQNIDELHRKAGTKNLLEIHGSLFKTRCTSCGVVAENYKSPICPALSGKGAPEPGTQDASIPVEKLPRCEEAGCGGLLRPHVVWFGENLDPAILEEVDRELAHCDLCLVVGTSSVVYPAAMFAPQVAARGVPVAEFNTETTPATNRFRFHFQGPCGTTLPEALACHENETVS

[4] = biological target: Heat shock protein HSP 90-alpha (Homo sapiens, UniProt P07900); type: functional, organism-based
Protein RecA = biological target: T2, Protein RecA (Mycobacterium tuberculosis, UniProt P9WHJ3); test: Fluorescence Cell-Free Homogeneous Dose Retest to Identify Inhibitors of RecA-Intein Splicing Activity. [Related pubchem assays (depositor defined):AID2097, AID2223, AID489010, AID492950]; type: functional
T2 sequence (P9WHJ3 whole entry): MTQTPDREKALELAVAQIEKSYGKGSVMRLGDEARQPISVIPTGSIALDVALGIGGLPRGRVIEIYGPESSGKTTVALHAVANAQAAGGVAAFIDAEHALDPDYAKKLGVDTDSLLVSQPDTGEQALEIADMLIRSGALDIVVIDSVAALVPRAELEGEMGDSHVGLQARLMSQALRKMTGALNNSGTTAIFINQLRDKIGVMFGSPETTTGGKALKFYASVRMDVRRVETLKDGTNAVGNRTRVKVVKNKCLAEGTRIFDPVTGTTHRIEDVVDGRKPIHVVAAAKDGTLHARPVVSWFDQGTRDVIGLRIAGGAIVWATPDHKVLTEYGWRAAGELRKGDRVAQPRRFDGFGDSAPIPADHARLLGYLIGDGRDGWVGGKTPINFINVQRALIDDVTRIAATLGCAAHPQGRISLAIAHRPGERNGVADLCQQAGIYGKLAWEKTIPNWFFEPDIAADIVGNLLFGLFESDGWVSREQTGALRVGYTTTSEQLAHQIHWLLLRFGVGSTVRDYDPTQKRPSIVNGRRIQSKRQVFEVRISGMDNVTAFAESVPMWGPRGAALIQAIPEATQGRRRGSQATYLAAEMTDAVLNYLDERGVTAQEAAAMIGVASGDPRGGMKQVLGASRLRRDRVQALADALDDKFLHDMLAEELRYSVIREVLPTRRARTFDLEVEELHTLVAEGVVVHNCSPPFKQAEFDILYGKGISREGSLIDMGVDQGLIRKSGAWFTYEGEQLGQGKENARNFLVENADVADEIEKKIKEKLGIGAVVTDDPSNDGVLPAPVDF

[5] = IC50 of Artemis nuclease activity blockers – biochemical, fluorescence intensity, dose response (AID 720701); type: functional;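 also: Artemis endonuclease enzyme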
[6] = biological target: T3, Replicative DNA helicase DnaB (Mycobacterium tuberculosis, UniProt P9WMR3); test: DnaB intein splicing inhibitors, dose response, biochemical, cell-free fluorescence (AID 449749); type: functional
T3 sequence (P9WMR3 whole entry): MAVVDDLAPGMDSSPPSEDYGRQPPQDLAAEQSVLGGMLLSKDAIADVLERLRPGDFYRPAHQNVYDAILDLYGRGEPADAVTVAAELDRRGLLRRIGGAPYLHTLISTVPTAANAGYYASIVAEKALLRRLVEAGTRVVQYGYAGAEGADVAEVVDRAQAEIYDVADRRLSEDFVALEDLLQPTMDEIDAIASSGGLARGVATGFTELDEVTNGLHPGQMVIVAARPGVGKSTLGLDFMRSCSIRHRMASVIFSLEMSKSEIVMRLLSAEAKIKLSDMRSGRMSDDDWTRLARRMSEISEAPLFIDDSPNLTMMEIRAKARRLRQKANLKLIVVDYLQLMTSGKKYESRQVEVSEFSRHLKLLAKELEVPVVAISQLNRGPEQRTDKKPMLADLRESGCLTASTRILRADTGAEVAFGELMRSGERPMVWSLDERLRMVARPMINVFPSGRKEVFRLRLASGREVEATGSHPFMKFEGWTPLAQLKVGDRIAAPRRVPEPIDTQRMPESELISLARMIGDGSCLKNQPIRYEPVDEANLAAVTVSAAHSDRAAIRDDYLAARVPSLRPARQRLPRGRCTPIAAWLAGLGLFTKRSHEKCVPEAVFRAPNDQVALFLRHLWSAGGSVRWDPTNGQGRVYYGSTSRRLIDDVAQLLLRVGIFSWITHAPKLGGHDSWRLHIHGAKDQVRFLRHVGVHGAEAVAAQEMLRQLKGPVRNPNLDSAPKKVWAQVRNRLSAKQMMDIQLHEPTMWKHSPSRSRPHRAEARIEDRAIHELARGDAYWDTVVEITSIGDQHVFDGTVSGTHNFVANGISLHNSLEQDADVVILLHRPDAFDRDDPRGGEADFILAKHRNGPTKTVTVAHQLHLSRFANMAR

[7] = biological target: T4, Apoptotic protease-activating factor 1 (Homo sapiens, UniProt O14727); type: functional
T4 sequence (O14727 whole entry): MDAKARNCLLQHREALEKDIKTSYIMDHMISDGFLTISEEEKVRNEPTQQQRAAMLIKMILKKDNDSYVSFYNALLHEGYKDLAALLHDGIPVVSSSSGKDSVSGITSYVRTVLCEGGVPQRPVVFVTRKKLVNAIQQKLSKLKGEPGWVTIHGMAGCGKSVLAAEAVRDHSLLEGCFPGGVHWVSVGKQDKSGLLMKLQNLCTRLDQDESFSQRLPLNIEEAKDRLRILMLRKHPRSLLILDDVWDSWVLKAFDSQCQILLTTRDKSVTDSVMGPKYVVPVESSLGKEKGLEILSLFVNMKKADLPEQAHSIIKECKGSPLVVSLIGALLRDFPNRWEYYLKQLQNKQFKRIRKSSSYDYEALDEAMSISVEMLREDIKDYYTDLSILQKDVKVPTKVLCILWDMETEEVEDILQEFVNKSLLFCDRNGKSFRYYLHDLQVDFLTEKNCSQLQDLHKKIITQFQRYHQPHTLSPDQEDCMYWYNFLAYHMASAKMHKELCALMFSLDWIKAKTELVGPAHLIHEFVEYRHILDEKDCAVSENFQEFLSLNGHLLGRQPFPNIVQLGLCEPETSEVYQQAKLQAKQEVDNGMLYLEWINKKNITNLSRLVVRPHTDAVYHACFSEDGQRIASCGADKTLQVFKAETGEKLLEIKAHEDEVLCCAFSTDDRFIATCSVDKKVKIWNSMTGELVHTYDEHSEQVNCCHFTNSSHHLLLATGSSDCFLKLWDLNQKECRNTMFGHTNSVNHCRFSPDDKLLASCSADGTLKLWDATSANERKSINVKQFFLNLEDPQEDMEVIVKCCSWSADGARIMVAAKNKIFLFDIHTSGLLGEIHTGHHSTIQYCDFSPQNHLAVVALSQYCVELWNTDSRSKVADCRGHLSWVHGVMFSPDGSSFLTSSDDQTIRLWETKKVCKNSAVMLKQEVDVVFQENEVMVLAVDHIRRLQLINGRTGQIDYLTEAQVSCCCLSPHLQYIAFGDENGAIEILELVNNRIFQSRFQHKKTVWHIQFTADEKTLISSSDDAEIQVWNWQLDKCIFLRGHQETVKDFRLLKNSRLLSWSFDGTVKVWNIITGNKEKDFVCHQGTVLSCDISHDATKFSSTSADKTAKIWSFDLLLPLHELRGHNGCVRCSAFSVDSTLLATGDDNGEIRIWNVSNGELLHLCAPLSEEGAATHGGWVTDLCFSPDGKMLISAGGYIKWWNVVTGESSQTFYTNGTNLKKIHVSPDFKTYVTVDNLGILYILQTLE

Phospholipase D1 = biological target: T5, Phospholipase D1 (Homo sapiens, UniProt Q13393); test: PLD1 Cellular Concentration Response Study.; type: functional
T5 sequence (Q13393 whole entry): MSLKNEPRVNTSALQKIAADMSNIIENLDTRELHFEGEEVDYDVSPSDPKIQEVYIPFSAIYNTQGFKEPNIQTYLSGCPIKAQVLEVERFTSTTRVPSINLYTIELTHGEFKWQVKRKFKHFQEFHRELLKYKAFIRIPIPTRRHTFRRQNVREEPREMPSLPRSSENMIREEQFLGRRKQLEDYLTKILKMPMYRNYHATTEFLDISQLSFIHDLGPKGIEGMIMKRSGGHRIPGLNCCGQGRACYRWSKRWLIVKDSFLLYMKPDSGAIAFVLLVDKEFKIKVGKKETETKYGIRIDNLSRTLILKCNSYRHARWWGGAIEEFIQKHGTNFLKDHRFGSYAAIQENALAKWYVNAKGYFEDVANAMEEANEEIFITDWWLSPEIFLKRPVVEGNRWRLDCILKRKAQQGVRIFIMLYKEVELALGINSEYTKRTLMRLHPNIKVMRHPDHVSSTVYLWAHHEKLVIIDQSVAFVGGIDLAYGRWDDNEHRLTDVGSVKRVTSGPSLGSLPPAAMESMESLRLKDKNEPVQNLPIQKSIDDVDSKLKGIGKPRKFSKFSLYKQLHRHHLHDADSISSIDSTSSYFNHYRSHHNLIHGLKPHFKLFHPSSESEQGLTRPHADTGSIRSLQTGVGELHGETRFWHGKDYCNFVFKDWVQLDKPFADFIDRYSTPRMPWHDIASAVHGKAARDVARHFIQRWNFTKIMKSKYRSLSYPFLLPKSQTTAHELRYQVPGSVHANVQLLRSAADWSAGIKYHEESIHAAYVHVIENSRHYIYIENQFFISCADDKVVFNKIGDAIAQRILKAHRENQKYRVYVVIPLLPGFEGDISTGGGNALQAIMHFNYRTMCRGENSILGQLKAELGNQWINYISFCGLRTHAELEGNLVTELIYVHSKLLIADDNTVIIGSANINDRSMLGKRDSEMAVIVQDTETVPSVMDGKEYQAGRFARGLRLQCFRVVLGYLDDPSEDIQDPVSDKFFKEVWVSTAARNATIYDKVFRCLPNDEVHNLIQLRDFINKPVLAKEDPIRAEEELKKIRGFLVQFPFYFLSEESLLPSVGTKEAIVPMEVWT

Phospholipase D2 = Phospholipase D2 (Homo sapiens, UniProt O14939); test: PLD2 Cellular Concentration Response Study.; type: functional
Phospholipase D2, sequence (O14939 whole entry): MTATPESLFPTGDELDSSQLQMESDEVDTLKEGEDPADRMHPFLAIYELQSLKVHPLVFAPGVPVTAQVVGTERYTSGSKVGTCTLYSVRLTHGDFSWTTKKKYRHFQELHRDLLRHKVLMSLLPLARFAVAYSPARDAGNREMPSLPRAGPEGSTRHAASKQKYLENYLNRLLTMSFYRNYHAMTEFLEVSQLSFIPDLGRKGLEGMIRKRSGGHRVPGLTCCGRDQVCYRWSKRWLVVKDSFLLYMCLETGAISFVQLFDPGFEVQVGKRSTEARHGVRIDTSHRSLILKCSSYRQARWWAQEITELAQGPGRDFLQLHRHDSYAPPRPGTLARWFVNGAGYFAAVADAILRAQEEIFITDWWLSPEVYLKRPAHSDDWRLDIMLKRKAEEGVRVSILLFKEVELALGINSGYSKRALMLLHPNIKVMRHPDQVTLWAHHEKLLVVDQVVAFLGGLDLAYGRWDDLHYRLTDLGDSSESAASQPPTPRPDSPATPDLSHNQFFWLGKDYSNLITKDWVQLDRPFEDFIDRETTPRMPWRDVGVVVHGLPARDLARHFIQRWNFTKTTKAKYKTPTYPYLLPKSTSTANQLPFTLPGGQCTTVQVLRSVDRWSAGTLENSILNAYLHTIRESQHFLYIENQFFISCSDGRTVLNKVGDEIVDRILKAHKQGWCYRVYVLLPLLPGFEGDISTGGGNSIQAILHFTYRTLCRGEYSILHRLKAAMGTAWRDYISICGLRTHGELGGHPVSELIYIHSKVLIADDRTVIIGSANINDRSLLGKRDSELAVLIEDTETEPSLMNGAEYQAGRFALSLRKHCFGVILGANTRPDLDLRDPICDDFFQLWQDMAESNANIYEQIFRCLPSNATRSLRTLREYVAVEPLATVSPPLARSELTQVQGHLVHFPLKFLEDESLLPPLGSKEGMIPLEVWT

[8] = HIV-1 Vif–A3G interaction blockers – biochemical, TR-FRET, GST-Vif 1-94, biotin-A3G peptide, dose response retest, primary screen (AID 1117319); type: functional;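 also: TR-FRET signal of purified GST-Vif binding a biotinylated A3G peptide; inhibitors lower the FRET signal by blocking Vif and A3G binding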
[9] = biological target: G-protein coupled receptor 183 (Homo sapiens, UniProt P32249); test: SAR confirmation of small molecule antagonists of the EBI2 receptor via a luminescent beta-arrestin assa.; type: functional
G-protein coupled receptor 183, sequence (P32249 whole entry): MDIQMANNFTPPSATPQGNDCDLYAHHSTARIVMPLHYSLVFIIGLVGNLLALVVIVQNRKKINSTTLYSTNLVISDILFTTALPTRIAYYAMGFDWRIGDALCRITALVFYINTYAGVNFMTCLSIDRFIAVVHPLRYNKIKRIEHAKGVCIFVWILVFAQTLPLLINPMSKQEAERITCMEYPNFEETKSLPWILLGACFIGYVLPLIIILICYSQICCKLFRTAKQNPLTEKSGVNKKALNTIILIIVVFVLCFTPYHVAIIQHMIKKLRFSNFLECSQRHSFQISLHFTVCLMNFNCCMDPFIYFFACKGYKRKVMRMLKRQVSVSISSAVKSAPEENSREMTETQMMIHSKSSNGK

[10] = biological target: RNA-editing ligase 1, mitochondrial (Trypanosoma brucei brucei, UniProt P86926); test: inhibition of trypanosome RNA editing ligase – biochemical, fluorescence, Trypanosoma brucei, dose response (AID 1117295); type: functional
RNA-editing ligase 1, mitochondrial, sequence (P86926 whole entry): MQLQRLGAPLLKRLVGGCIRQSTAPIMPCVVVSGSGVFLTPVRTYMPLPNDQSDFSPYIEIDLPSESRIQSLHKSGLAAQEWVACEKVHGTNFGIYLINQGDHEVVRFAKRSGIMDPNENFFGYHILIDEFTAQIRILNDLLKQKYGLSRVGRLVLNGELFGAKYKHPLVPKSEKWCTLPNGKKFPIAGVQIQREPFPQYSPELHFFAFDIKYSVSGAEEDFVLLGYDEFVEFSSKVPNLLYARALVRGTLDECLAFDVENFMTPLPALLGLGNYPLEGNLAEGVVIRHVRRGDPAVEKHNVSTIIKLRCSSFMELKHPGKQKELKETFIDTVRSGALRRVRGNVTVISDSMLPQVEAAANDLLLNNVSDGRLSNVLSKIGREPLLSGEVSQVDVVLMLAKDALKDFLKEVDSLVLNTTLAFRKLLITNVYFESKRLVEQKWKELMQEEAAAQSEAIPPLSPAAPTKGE

Estrogen receptor beta [11] = biological target: T6, Estrogen receptor beta (Homo sapiens, UniProt Q92731); test: blockers of SRC-3 recruitment to ERβ – biochemical, ELISA, streptavidin-HRP readout, orthogonal assay, confirmation (AID 1060)
T6 sequence (Q92731 whole entry): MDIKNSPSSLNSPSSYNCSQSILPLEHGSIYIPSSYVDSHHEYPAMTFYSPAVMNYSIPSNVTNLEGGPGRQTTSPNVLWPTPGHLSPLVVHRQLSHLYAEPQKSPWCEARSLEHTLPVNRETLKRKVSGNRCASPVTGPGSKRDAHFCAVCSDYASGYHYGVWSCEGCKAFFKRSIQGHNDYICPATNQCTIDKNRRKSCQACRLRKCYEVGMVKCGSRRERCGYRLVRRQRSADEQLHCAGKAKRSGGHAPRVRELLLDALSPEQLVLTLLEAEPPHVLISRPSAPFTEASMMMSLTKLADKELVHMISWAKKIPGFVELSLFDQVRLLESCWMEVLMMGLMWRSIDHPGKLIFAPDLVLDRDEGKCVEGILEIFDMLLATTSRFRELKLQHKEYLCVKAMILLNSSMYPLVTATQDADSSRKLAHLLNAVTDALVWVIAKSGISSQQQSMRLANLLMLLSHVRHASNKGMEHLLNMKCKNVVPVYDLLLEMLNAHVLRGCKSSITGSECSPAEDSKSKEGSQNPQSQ

Estrogen receptor beta [12] = biological target: T6, Estrogen receptor beta
Protein Tat = biological target: T7, Protein Tat (Human immunodeficiency virus type 1 group M subtype B (isolate HXB2)(HIV-1), UniProt P04608); type: functional;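 also: tat binding to TAR RNA read out by fluorescence polarization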
T7 sequence (P04608 whole entry): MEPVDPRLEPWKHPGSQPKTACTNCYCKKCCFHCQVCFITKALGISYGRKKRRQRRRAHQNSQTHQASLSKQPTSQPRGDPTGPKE

[13] = viability loss in Vero cells – cytotoxicity control for Vif-APOBEC3G degradation inhibitor project, dose response (AID 1117358); type: functional; conditions: Vero

## c1ccc(-c2cc(NCCCN3CCOCC3)c3ccccc3n2)cc1
[1]
  IC50: 12.6 µM (active)
[2]
  IC50: 7.68 µM (active)

## CCCn1c(SCC(=O)Nc2ccc3c(c2)OCO3)nc2c1c(=O)n(C)c(=O)n2C
[3]
  AC50: > 30 µM (inactive)

## Cc1[nH]n(-c2ccccc2)c(=O)c1C(C[N+](=O)[O-])c1ccc(Br)cc1 (stereo not given)
[4]
  AC50: 7.85 µM (active)
Protein RecA
  EC50: 5.73 µM (active)
[5]
  IC50: > 20 µM (inactive)
[6]
  AC50: 7.55 µM (active)
[7]
  IC50: 4.17 µM (active)

## O=C(NCCN1CCC2(CC1)C(=O)NCN2Cc1cccc2ccccc12)c1ccc2ccccc2c1
Phospholipase D1
  IC50: 1.05 µM (active)
Phospholipase D2
  IC50: 0.16 µM (active)

## O=C(NCCN1CCC2(CC1)C(=O)NCN2Cc1cccnc1)c1ccc2ccccc2c1Br
Phospholipase D1
  IC50: 20 µM (active)
Phospholipase D2
  IC50: 1.24 µM (active)

## c1ccc(-c2nc(N3CCCCCC3)c3ccccc3n2)cc1
[1]
  IC50: > 80 µM (inactive)
[2]
  IC50: 72.2 µM (inactive)

## O=C(O)c1ccccc1NS(=O)(=O)c1ccccc1C(F)(F)F
[8]
  IC50: > 100 µM (active)

## O=C(/C=C/c1ccc(Br)cc1)N1CCN(Cc2ccc(Cl)cc2)CC1
[9]
  IC50: 0.00103 µM (active)

## COC(=O)C1=C(C)N(Cc2ccccc2C(F)(F)F)C(NCc2ccc(C(F)(F)F)cc2)=NC1c1ccc(Cl)cc1 (stereo not given)
[10]
  IC50: > 96.6 µM (inactive)

## Cc1noc(C)c1CSCC(=O)OCC(=O)Nc1sccc1C#N
Estrogen receptor beta [11]
  IC50: < 77 µM (not active)
Estrogen receptor beta [12]
  IC50: 15.8 µM (active)

## CCc1nc(OCc2ccco2)c2sc3nc4c(cc3c2n1)COC(C)(C)C4
Protein Tat
  IC50: > 100 µM (active)
[8]
  IC50: > 100 µM (active)
[13]
  CC50: > 40 µM (active)

## CC(C)CCN1C(=O)c2ccccc2C1c1nnnn1-c1ccc2c(c1)OCCO2 (stereo not given)
[3]
  AC50: > 30 µM (inactive)

## C=C(Cl)COc1ccc2c(CCC)cc(=O)oc2c1
[13]
  CC50: > 40 µM (active)

## O=C(Cc1ccc(Br)cc1)N1CCN(Cc2ccc(Cl)cc2)CC1
[9]
  IC50: > 1 µM (inactive)
